Converted amounts (≈) assume the structure as drawn. Where a SMILES comes first, the peptide text is derived from it. Bridges are numbered along the chain shown (N, C = ends). [ ]: non-standard residue; d: D form. The star is where a group is joined. Ileψ(thiazoline)Cys = CC[C@H](C)[C@H](N)C1=N[C@H](C(=O)*)CS1; dOrn = NCCC[C@@H](N)C(=O)O
Columns and labels:
Type in all cases: functional
Staphylococcus aureus [1] = assay: Antibacterial activity against vancomycin-intermediate Staphylococcus aureus Mu50 after 24 hrs by Etest; conditions: Mu50, 24 h
Staphylococcus aureus [2] = assay: Antibacterial activity against vancomycin-susceptible Staphylococcus aureus Mu50omega after 24 hrs by Etest
Staphylococcus aureus [3] = assay: Antibacterial activity against vancomycin-intermediate Staphylococcus aureus Mu50 after 48 hrs by Etest; conditions: Mu50, 48 h
Staphylococcus aureus [4] = assay: Antibacterial activity against vancomycin-susceptible Staphylococcus aureus Mu50omega after 48 hrs by Etest
Staphylococcus aureus [5] = assay: Antibacterial activity against vancomycin-susceptible Staphylococcus aureus Mu50omega expressing vraSn mutant gene after 24 hrs by Etest
Staphylococcus aureus [6] = assay: Antibacterial activity against vancomycin-susceptible Staphylococcus aureus Mu50omega expressing vraSm mutant gene after 24 hrs by Etest
Staphylococcus aureus [7] = assay: Antibacterial activity against vancomycin-susceptible Staphylococcus aureus Mu50omega expressing vraSm, graRm mutant gene after 24 hrs by Etest
Staphylococcus aureus [8] = assay: Antibacterial activity against vancomycin-susceptible Staphylococcus aureus Mu50omega expressing vraSn mutant gene after 48 hrs by Etest
Staphylococcus aureus [9] = assay: Antibacterial activity against vancomycin-susceptible Staphylococcus aureus Mu50omega expressing vraSm mutant gene after 48 hrs by Etest
Staphylococcus aureus [10] = assay: Antibacterial activity against vancomycin-susceptible Staphylococcus aureus Mu50omega expressing vraSm, graRm mutant gene after 48 hrs by Etest
Staphylococcus aureus [11] = assay: Antibacterial activity against vancomycin-intermediate Staphylococcus aureus Mu50 after 24 hrs by Etest in presence of Sulbactam; conditions: Mu50, 24 h
Staphylococcus aureus [12] = assay: Antibacterial activity against vancomycin-susceptible Staphylococcus aureus Mu50omega after 24 hrs by Etest in presence of Sulbactam
Staphylococcus aureus [13] = assay: Antibacterial activity against vancomycin-susceptible Staphylococcus aureus Mu50omega expressing vraSn mutant gene after 24 hrs by Etest in presence of Sulbactam
Staphylococcus aureus [14] = assay: Antibacterial activity against vancomycin-susceptible Staphylococcus aureus Mu50omega expressing vraSm mutant gene after 24 hrs by Etest in presence of Sulbactam
Staphylococcus aureus [15] = assay: Antibacterial activity against vancomycin-susceptible Staphylococcus aureus Mu50omega expressing vraSm, graRm mutant gene after 24 hrs by Etest in presence of Sulbactam
Staphylococcus aureus [16] = assay: Antibacterial activity against vancomycin-intermediate Staphylococcus aureus Mu50 after 48 hrs by Etest in presence of Sulbactam; conditions: Mu50, 48 h
Staphylococcus aureus [17] = assay: Antibacterial activity against vancomycin-susceptible Staphylococcus aureus Mu50omega after 48 hrs by Etest in presence of Sulbactam
Staphylococcus aureus [18] = assay: Antibacterial activity against vancomycin-susceptible Staphylococcus aureus Mu50omega expressing vraSn mutant gene after 48 hrs by Etest in presence of Sulbactam
Staphylococcus aureus [19] = assay: Antibacterial activity against vancomycin-susceptible Staphylococcus aureus Mu50omega expressing vraSm mutant gene after 48 hrs by Etest in presence of Sulbactam
Staphylococcus aureus [20] = assay: Antibacterial activity against vancomycin-susceptible Staphylococcus aureus Mu50omega expressing vraSm, graRm mutant gene after 48 hrs by Etest in presence of Sulbactam

SMILES | MIC (Staphylococcus aureus [1]) [µg/mL] | MIC (Staphylococcus aureus [2]) [µg/mL] | MIC (Staphylococcus aureus [3]) [µg/mL] | MIC (Staphylococcus aureus [4]) [µg/mL] | MIC (Staphylococcus aureus [5]) [µg/mL] | MIC (Staphylococcus aureus [6]) [µg/mL] | MIC (Staphylococcus aureus [7]) [µg/mL] | MIC (Staphylococcus aureus [8]) [µg/mL] | MIC (Staphylococcus aureus [9]) [µg/mL] | MIC (Staphylococcus aureus [10]) [µg/mL] | MIC (Staphylococcus aureus [11]) [µg/mL] | MIC (Staphylococcus aureus [12]) [µg/mL] | MIC (Staphylococcus aureus [13]) [µg/mL] | MIC (Staphylococcus aureus [14]) [µg/mL] | MIC (Staphylococcus aureus [15]) [µg/mL] | MIC (Staphylococcus aureus [16]) [µg/mL] | MIC (Staphylococcus aureus [17]) [µg/mL] | MIC (Staphylococcus aureus [18]) [µg/mL] | MIC (Staphylococcus aureus [19]) [µg/mL] | MIC (Staphylococcus aureus [20]) [µg/mL]
COc1cccc(OC)c1C(=O)N[C@@H]1C(=O)N2[C@@H]1SC(C)(C)[C@@H]2C(=O)O [METHICILLIN] | > 256 | > 256 | > 256 | > 256 | – | – | – | – | – | – | – | – | – | – | – | – | – | – | – | –
C[C@H]1COc2c(N3CCN(C)CC3)c(F)cc3c(=O)c(C(=O)O)cn1c23.C[C@H]1COc2c(N3CCN(C)CC3)c(F)cc3c(=O)c(C(=O)O)cn1c23.O [LEVOFLOXACIN] | > 32 | > 32 | > 32 | > 32 | – | – | – | – | – | – | – | – | – | – | – | – | – | – | – | –
CO/N=C(\C(=O)N[C@@H]1C(=O)N2C(C(=O)O)=C(CSc3nc(=O)c(O)nn3C)CS[C@H]12)c1csc(N)n1 [CEFTRIAXONE] | > 256 | 3 (≈ 5.41 µM) | > 256 | > 256 | > 0.256 | > 256 | > 256 | – | – | – | – | – | – | – | – | – | – | – | – | –
CC[C@H]1OC(=O)[C@H](C)[C@@H](O[C@H]2C[C@@](C)(OC)[C@@H](O)[C@H](C)O2)[C@H](C)[C@@H](O[C@@H]2O[C@H](C)C[C@H](N(C)C)[C@H]2O)[C@](C)(O)C[C@@H](C)C(=O)[C@H](C)[C@@H](O)[C@]1(C)O [ERYTHROMYCIN] | > 250 | > 256 | > 250 | > 256 | – | – | – | – | – | – | – | – | – | – | – | – | – | – | – | –
Cc1onc(-c2ccccc2)c1C(=O)N[C@@H]1C(=O)N2[C@@H]1SC(C)(C)[C@@H]2C(=O)O [OXACILLIN] | > 256 | 8 (≈ 19.9 µM) | > 256 | 8 (≈ 19.9 µM) | > 256 | > 256 | > 256 | > 256 | > 256 | > 256 | – | – | – | – | – | – | – | – | – | –
CN(C)c1ccc(O)c2c1C[C@H]1C[C@H]3[C@H](N(C)C)C(O)=C(C(N)=O)C(=O)[C@@]3(O)C(O)=C1C2=O [MINOCYCLINE] | 12 (≈ 26.2 µM) | 10 (≈ 21.9 µM) | 24 (≈ 52.5 µM) | 24 (≈ 52.5 µM) | 8 (≈ 17.5 µM) | 8 (≈ 17.5 µM) | 8 (≈ 17.5 µM) | 24 (≈ 52.5 µM) | 24 (≈ 52.5 µM) | 24 (≈ 52.5 µM) | – | – | – | – | – | – | – | – | – | –
CN(C)[C@@H]1C(O)=C(C(N)=O)C(=O)[C@@]2(O)C(O)=C3C(=O)c4c(O)cccc4[C@@](C)(O)[C@H]3C[C@@H]12 [TETRACYCLINE] | 32 (≈ 72 µM) | 32 (≈ 72 µM) | 48 (≈ 108 µM) | 48 (≈ 108 µM) | 24 (≈ 54 µM) | 24 (≈ 54 µM) | 24 (≈ 54 µM) | 48 (≈ 108 µM) | 48 (≈ 108 µM) | 48 (≈ 108 µM) | – | – | – | – | – | – | – | – | – | –
CC[C@H](C)[C@H](N)C1=N[C@H](C(=O)N[C@@H](CC(C)C)C(=O)N[C@H](CCC(=O)O)C(=O)N[C@H](C(=O)N[C@H]2CCCCNC(=O)[C@H](CC(N)=O)NC(=O)[C@@H](CC(=O)O)NC(=O)[C@H](Cc3cnc[nH]3)NC(=O)[C@@H](Cc3ccccc3)NC(=O)[C@H]([C@@H](C)CC)NC(=O)[C@@H](CCCN)NC2=O)[C@@H](C)CC)CS1 [BACITRACIN] ({Ileψ(thiazoline)Cys}-L[dE]IK[dOrn]I[dF]H[dD]N; lactam 4-C) | > 256 | 12 (≈ 8.43 µM) | > 256 | 24 (≈ 16.9 µM) | 128 (≈ 90 µM) | 256 (≈ 180 µM) | 256 (≈ 180 µM) | 256 (≈ 180 µM) | > 256 | > 256 | – | – | – | – | – | – | – | – | – | –
CC1(C)S[C@@H]2[C@H](NC(=O)[C@H](N)c3ccccc3)C(=O)N2[C@H]1C(=O)O [AMPICILLIN] | 8 (≈ 22.9 µM) | 1 (≈ 2.86 µM) | 8 (≈ 22.9 µM) | 1 (≈ 2.86 µM) | 12 (≈ 34.3 µM) | 12 (≈ 34.3 µM) | 12 (≈ 34.3 µM) | 12 (≈ 34.3 µM) | 12 (≈ 34.3 µM) | 12 (≈ 34.3 µM) | 48 | 2 | 48 | 64 | 64 | 48 | 2 | 48 | 64 | 64
CN[C@H](CC(C)C)C(=O)N[C@H]1C(=O)N[C@@H](CC(N)=O)C(=O)N[C@H]2C(=O)N[C@H]3C(=O)N[C@H](C(=O)N[C@H](C(=O)O)c4cc(O)cc(O)c4-c4cc3ccc4O)[C@H](O)c3ccc(c(Cl)c3)Oc3cc2cc(c3O[C@@H]2O[C@H](CO)[C@@H](O)[C@H](O)[C@H]2O[C@H]2C[C@](C)(N)[C@H](O)[C@H](C)O2)Oc2ccc(cc2Cl)[C@H]1O [VANCOMYCIN] | 6 (≈ 4.14 µM) | 0.5 (≈ 0.345 µM) | 7 (≈ 4.83 µM) | 1 (≈ 0.69 µM) | 3.5 (≈ 2.42 µM) | 4.5 (≈ 3.11 µM) | 6 (≈ 4.14 µM) | 4 (≈ 2.76 µM) | 5 (≈ 3.45 µM) | 7 (≈ 4.83 µM) | – | – | – | – | – | – | – | – | – | –
CC[C@H]1OC(=O)[C@H](C)[C@@H](O[C@H]2C[C@@](C)(OC)[C@@H](O)[C@H](C)O2)[C@H](C)[C@@H](O[C@@H]2O[C@H](C)C[C@H](N(C)C)[C@H]2O)[C@](C)(OC)C[C@@H](C)C(=O)[C@H](C)[C@@H](O)[C@]1(C)O [CLARITHROMYCIN] | > 256 | > 256 | > 256 | > 256 | – | – | – | – | – | – | – | – | – | – | – | – | – | – | – | –
C[C@@H]1CN(c2c(F)c(N)c3c(=O)c(C(=O)O)cn(C4CC4)c3c2F)C[C@H](C)N1 [SPARFLOXACIN] | > 32 | > 32 | > 32 | > 32 | – | – | – | – | – | – | – | – | – | – | – | – | – | – | – | –

From ChEMBL document CHEMBL1629665, “Contribution of vraSR and graSR point mutations to vancomycin resistance in vancomycin-intermediate Staphylococcus aureus” (2009)
